From patent US9642819B2, “Low dosage serotonin 5-HT2A receptor agonist to suppress inflammation” (BOARD OF SUPERVISORS OF LOUISIANA STATE UNIVERSITY AND …, priority 2008, dated 2017)
Entries after “also recorded” stand apart in the source; their conditions may differ. Read-outs that look alike come from different tables or passages of the source.

How the values were obtained:
[1] = system: ICAM-1, VCAM-1, and IL-6 gene expression; test: TNF-α induced proinflammatory gene expression (ICAM-1, VCAM-1, IL-6) by Q-RT-PCR in RASM cells; assay type: cell-based, rat
Description: (§1) RASM cells and treatment. Rat aortic smooth muscle (RASM) cells were isolated from adult 180 g male Sprague-Dawley rats and provided by the Cell and Molecular Core Facility in the Department of Pharmacology at LSUHSC-NO. Isolated RASM cells were grown in M-199 media containing 10% fetal bovine serum (Gibco), 100 units/mL penicillin, and 100 µg/mL streptomycin, and incubated at 37° C. in 5% CO2. Cells for all assays were used between passages 3 and 5. Prior to treatments, cells were grown in M-199 media with 10% fetal bovine serum (FBS) until 30-50% confluent. For most assays, cells were treated with (R)-DOI, or other drugs as indicated, at specific concentrations for 24 hours, followed by TNF-α (10 ng/ml) and (R)-DOI at the same pretreatment concentrations in fresh M-199 media. After another 24 hours, the cells were scraped, pelleted, and processed for RNA.
RNA isolation and Quantitative Realtime-PCR. RNA was extracted from cells using Illustra RNAspin Mini kits from GE Healthcare Life Sciences (Piscataway, N.J.) following protocols supplied by the manufacturer. First strand cDNA was generated using the ImProm-II cDNA synthesis kit (Promega) following the manufacturers protocols. Q-RT-PCR was performed using the ProbeLibrary system from Roche (Indianapolis, Ind.) in combination with the HotStart-IT probe qpcr master mix from USB Biological (Cleveland, Ohio) following manufactures protocols.
Primers were synthesized by IDT (Coralville, Iowa). ProbeLibrary probes from Roche were: U3, U74, U13, U106, U79 for 5-HT2AR, ICAM-1, VCAM-1, IL-6, and cyclophillin B, respectively. Quantitative determination of gene expression levels using a 2-step cycling protocol was performed on a MyIQ-5 Cycler (Bio-Rad, Hercules Calif.). Relative gene expression levels were calculated using the 2^[−ΔΔC(T)] method. Levels of all targets from the test samples were normalized to rat cyclophillin B expression.
To examine the effects of 5-HT2A receptor activation on TNF-α mediated proinflammatory gene expression, RASM cells were pretreated with (R)-DOI, a selective 5-HT2 receptor agonist, as described above. Dose-response curves were determined for the effects on ICAM-1, VCAM-1, and IL-6 gene expression for twelve different concentrations of (R)-DOI ranging from 0.1 pM to 100 nM, with each experiment repeated in triplicate. In FIGS. 1A-1C, the Y-axis represents a percent of TNF-α for the dose of (R)-DOI indicated on the X-axis.

[2] = system: IL-6 gene expression; test: TNF-α induced IL-6 gene expression in primary rat aortic smooth muscle cells; assay type: cell-based; settings: RASM passage 4, media with FBS, 24 h pretreatment, TNF-α 10 ng/ml, read-out: IC50 for proinflammatory gene expression inhibition for IL-6
Description: as §1, with “For most assays, cells were treated with (R)-DOI, or other drugs as indicated, at specific concentrations for 24 hours, followed by TNF-α (10 ng/ml) and (R)-DOI at the same pretreatment concentrations in fresh M-199 media. After another 24 hours, the cells were scraped, pelleted, and processed for RNA.” left out
RNA isolation and Quantitative Realtime-PCR. […]
The sequences of primers used are: 5-HT2AR (5-hydroxytryptamine 2A receptor): forward primer 5′-[…]-3′ (SEQ ID NO: 1), reverse primer, 5′[…]-3′ (SEQ ID NO: 2); ICAM-1 (intracellular adhesion molecule 1): forward primer, 5′-[…]-3′ (SEQ ID NO: 3, reverse primer, 5′-[…]-3′ (SEQ ID NO: 4); VCAM-1 (vascular adhesion molecule 1): forward primer, 5′-[…]-3′ (SEQ ID NO: 5), reverse primer, 5′-[…]-3′ (SEQ ID NO: 6); IL-6 (interleukin-6): forward primer, 5′-[…] […]-3′ (SEQ ID NO: 7), reverse primer, 5′-[…]-3′ (SEQ ID NO: 8); and cyclophillin B (control amplicon): forward primer, 5′-[…]-3′ (SEQ ID NO: 9), reverse primer, 5′-[…]-3′ (SEQ ID NO: 10). […] Quantitative determination of gene expression levels using a 2-step cycling protocol was performed on a MyIQ-5 Cycler (Bio-Rad, Hercules Calif.). […]

COc1cc(C[C@@H](C)N)c(OC)cc1I [(R)-DOI, (R)-1-(2,5-dimethoxy-4-iodophenyl)-2-aminopropane]
effect of pretreatment on TNF-α induced increase in proinflammatory gene expression ([1]; 1 nM prior to TNF-α 10 ng/ml): completely blocked; also recorded: completely inhibits | IC50 ([1]; RASM cells, TNF-α 10 ng/ml, ICAM-1, VCAM-1, IL-6, read-out: IC50 for inhibition of TNF-α mediated proinflammatory markers): 10 to 20 pM | IC50 ([1]; Rattus norvegicus, RASM cells, TNF-α 10 ng/ml, ICAM-1, VCAM-1, IL-6, read-out: IC50 for inhibition of TNF-α mediated proinflammatory markers): ~20 pM | IC50 ([1]; Rattus norvegicus, read-out: IC50 in blocking TNF-α mediated inflammation): ~20 pM | potency of inhibiting inflammatory marker gene expression relative to any current drug on the market ([1]; greater): at least 100 times | potency relative to the more effective current anti-inflammatory agents ([1]; more potent): ~300 fold | effect of compound alone on baseline expression of ICAM-1, VCAM-1, IL-6 ([1]; without TNF-α, 1 nM): no effect | IC50 [2]: 10.3 pM
